The source of these data is ChEMBL document CHEMBL1201862, “PubChem BioAssay data set” (2004).

The target of experiment [1] is T1, Caspase-3 (Homo sapiens, UniProt P42574).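 Note: Dose-response selectivity test against caspase-3 for candidate inhibitors of sentrin-specific proteases (SENPs).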
T1 sequence (P42574 whole entry): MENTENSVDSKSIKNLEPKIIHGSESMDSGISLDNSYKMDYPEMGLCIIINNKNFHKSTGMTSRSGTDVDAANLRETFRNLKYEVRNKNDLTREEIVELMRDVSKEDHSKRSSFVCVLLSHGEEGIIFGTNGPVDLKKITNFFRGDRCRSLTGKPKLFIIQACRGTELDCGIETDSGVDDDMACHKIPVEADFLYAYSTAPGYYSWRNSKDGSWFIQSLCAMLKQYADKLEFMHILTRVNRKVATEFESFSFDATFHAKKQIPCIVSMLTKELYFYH
It is filed as functional.

Experiment [2] addresses T2, Sentrin-specific protease 7 (Homo sapiens, UniProt Q9BQF6).
T2 sequence (Q9BQF6 whole entry): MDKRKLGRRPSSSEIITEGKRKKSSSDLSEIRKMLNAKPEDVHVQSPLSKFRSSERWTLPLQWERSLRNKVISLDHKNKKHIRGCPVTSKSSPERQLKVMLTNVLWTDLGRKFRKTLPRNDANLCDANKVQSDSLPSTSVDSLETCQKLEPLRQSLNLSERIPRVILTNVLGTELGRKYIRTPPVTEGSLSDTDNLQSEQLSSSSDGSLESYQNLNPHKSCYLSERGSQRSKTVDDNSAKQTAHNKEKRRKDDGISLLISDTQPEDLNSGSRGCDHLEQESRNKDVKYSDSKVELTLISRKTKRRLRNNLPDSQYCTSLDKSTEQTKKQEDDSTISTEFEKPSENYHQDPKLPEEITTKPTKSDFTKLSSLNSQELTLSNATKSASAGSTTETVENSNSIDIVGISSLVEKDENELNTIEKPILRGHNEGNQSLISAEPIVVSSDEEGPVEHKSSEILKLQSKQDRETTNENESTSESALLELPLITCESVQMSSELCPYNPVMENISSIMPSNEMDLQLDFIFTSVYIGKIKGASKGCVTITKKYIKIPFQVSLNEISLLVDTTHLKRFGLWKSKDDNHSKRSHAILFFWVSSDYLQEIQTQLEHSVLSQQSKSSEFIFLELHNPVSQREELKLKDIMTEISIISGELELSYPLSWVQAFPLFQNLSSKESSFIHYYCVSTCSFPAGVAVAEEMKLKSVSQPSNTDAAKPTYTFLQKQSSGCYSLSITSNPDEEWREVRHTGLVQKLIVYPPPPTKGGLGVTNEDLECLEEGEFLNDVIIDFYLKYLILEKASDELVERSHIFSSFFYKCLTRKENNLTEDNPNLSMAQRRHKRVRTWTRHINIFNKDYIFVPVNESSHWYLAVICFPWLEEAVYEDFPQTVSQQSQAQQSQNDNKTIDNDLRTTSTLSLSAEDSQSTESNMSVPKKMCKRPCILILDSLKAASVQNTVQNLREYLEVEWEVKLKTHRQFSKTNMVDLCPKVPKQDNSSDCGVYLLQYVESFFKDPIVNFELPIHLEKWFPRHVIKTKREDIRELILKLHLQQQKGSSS
It is filed as functional.

The target of experiment [3] is T3, Sentrin-specific protease 8 (Homo sapiens, UniProt Q96LD8).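 Note: luminescence read-out of SENP8 inhibition, dose-response confirmation following an ultra-high-throughput screen.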
T3 sequence (Q96LD8 whole entry): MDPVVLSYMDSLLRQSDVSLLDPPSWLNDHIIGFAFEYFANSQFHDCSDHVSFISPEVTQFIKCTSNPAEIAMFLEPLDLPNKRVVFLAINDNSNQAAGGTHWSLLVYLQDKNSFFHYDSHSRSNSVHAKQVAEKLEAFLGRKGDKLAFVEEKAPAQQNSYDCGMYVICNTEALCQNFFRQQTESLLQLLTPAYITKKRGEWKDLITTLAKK
It is filed as functional.

Experiment [4] concerns Streptococcus sp. 'group A'. In words: growth inhibition of control SK(-) GAS strain, dose response, counter-screen for streptokinase expression inhibitor project, luminescence, kanamycin, BacTiterGlo, confirmation (AID 1900). It is filed as functional, organism-based.
Experiment [5] relates to Streptococcus. In words: Group A Streptococcus viability loss, dose response, counter-screen for streptokinase expression inhibitor project, luminescence, BacTiterGlo (AID 1915).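 Note: potency for reduction of bacterial viability or growth.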 It is filed as functional, organism-based. A general note: The purpose of a counterscreen is to sort out artefacts and off-target activity.
Experiment [6] deals with T4, Protein RecA (Mycobacterium tuberculosis, UniProt P9WHJ3).
T4 sequence (P9WHJ3 whole entry): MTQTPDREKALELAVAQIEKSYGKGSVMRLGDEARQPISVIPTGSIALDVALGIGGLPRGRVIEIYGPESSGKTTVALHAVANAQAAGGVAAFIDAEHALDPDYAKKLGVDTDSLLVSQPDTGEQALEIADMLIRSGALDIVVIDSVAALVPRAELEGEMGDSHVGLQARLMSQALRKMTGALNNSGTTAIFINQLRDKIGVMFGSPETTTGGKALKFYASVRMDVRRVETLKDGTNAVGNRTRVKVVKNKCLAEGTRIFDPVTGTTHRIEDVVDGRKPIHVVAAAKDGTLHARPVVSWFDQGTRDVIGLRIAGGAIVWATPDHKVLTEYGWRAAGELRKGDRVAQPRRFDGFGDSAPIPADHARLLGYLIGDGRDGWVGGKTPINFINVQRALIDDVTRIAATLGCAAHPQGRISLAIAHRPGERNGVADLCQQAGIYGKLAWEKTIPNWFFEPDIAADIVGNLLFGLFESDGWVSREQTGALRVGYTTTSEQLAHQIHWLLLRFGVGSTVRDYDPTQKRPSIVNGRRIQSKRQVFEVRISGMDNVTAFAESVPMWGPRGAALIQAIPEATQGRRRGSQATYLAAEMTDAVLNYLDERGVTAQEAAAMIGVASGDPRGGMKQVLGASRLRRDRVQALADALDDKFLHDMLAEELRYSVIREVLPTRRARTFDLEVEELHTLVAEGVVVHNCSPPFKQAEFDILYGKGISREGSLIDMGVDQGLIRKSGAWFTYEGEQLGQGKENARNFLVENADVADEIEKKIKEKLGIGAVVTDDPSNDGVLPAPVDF
The experiment in a line: Fluorescence Cell-Free Homogeneous Dose Retest to Identify Inhibitors of RecA-Intein Splicing Activity. [Related pubchem assays (depositor defined):AID2097, AID2223, AID489010, AID492950]. It is filed as functional.

The target in experiment [7] is Cyclin-dependent kinase 5 (Homo sapiens, UniProt Q00535). It is filed as functional.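 Note: CDK5 measured as one member of a kinase profiling panel.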
For experiment [8], the target named is Platelet-derived growth factor receptor alpha (Homo sapiens, UniProt P16234). The experiment in a line: Navigating the Kinome. Panel member name: PDGFRA. It is filed as functional.
Experiment [9] addresses Aurora kinase B (Homo sapiens, UniProt Q96GD4). It is filed as functional.
In experiment [10] the target is Mitogen-activated protein kinase kinase kinase kinase 4 (Homo sapiens, UniProt O95819). It is filed as functional.
The target in experiment [11] is Leukocyte tyrosine kinase receptor (Homo sapiens, UniProt P29376). The experiment in a line: Navigating the Kinome. Panel member name: LTK. It is filed as functional.

Molecules are shown by their SMILES. The source made the active and inactive calls. Where only a bound is given, the exact number is not on record here.

Chain of Cyclin-dependent kinase 5 (Q00535 whole entry): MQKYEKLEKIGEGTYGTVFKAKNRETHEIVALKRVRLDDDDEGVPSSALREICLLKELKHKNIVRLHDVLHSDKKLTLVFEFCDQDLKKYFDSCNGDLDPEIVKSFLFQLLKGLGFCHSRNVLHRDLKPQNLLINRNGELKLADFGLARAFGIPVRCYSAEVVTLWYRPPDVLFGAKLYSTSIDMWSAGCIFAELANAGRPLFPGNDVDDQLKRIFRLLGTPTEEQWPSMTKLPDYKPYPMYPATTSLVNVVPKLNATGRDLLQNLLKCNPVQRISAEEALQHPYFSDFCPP
Chain of Platelet-derived growth factor receptor alpha (P16234 whole entry): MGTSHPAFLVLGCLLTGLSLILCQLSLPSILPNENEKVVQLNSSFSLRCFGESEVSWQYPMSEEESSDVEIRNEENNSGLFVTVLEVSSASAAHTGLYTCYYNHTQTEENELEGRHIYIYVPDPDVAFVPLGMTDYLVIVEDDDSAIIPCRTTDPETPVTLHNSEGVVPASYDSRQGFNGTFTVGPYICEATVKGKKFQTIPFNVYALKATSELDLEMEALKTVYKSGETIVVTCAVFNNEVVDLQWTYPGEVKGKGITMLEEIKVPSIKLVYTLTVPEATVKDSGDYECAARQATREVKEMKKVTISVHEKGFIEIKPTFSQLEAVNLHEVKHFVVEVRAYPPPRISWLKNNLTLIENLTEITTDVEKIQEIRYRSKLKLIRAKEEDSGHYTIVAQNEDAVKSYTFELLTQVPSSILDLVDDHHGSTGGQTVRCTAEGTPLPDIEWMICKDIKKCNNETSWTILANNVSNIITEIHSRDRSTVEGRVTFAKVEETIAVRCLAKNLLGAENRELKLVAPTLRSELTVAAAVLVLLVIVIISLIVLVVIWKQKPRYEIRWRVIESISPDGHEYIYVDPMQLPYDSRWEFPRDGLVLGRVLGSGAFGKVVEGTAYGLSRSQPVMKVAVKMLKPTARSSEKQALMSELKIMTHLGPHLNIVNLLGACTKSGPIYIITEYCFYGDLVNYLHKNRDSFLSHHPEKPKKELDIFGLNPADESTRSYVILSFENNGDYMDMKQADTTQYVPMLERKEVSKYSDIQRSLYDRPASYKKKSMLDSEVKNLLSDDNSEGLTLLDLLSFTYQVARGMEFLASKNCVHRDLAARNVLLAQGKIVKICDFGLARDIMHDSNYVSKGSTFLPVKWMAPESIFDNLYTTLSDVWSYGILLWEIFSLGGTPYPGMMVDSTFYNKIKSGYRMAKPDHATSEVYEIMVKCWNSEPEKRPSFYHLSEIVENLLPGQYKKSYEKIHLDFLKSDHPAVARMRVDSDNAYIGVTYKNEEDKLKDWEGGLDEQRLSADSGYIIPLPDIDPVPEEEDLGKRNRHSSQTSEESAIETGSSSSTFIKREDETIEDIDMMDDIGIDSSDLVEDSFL
Chain of Leukocyte tyrosine kinase receptor (P29376 whole entry): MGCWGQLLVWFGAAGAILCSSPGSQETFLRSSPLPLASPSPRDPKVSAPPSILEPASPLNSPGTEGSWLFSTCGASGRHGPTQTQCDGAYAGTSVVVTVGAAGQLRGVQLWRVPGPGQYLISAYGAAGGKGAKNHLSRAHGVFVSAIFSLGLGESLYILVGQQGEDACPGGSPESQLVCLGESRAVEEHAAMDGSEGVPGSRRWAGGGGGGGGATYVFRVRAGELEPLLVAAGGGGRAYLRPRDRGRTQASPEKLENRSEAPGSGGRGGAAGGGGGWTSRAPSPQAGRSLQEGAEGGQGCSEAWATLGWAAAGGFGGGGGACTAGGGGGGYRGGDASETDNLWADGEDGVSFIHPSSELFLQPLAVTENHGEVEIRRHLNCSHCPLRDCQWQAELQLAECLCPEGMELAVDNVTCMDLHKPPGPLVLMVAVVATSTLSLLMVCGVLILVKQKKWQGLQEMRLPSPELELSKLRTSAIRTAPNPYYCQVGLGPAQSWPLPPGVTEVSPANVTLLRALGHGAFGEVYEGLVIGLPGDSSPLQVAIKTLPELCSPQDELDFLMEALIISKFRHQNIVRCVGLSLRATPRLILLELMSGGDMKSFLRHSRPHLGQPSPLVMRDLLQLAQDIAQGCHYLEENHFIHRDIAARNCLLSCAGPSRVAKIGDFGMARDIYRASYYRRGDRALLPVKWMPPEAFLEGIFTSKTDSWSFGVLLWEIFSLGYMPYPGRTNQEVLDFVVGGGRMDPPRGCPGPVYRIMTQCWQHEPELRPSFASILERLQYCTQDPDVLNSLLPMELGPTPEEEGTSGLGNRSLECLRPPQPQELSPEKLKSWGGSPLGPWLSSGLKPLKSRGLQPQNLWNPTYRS
Chain of Mitogen-activated protein kinase kinase kinase kinase 4 (O95819 whole entry): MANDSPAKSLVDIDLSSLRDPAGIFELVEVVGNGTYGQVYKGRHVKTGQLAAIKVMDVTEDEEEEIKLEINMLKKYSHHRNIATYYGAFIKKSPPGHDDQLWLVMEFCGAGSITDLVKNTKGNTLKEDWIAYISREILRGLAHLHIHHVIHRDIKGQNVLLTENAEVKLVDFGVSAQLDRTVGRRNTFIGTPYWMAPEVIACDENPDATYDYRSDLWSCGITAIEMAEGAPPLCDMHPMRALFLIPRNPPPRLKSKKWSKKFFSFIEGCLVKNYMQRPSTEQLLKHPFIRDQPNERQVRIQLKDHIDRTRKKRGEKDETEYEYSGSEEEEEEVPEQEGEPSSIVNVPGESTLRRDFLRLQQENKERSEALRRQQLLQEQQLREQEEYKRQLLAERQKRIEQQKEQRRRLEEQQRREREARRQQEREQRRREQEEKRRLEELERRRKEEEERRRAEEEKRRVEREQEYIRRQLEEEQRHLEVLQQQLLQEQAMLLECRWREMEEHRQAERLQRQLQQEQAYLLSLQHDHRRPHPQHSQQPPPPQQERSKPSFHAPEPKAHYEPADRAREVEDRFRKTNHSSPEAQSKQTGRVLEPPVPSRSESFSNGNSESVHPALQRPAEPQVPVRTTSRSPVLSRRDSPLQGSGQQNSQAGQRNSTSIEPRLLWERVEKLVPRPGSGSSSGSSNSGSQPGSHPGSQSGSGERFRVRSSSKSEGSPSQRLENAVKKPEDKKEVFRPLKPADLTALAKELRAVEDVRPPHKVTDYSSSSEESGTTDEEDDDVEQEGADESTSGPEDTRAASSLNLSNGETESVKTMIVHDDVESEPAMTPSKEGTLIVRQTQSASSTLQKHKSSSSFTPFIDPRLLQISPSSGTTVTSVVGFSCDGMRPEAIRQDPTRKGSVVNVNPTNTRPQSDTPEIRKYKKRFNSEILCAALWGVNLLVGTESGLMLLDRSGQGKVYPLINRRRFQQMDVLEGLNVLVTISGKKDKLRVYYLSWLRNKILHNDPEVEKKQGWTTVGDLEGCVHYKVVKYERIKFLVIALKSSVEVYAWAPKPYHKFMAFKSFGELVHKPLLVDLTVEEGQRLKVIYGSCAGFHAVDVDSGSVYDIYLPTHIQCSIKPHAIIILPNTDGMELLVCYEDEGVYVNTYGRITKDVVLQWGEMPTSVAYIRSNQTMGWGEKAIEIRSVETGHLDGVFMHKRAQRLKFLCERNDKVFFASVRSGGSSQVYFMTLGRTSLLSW
Chain of Aurora kinase B (Q96GD4 whole entry): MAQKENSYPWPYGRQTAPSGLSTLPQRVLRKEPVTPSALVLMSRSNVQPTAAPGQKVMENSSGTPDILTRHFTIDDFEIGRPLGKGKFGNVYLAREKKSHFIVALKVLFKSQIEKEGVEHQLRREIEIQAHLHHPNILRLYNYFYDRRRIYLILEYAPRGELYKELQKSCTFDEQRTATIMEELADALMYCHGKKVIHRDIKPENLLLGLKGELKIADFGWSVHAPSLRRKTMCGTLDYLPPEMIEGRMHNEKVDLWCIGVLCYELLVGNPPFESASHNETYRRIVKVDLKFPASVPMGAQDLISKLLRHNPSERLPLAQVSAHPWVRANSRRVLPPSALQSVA

Broadly, the IC50 is the concentration needed to halve the response being measured. Regarding `CCCNC(=O)c1c(N)n(CC2CCCO2)c2nc3ccccc3nc12` (stereo not given), the IC50 was 15.2 µM (active) in experiment [1], 2.83 µM (active) in experiment [2] and 3.35 µM (active) in experiment [3].
For orientation: EC50 means the midpoint of the concentration-response curve. As to `O=C1/C(=C\c2cccc(O)c2O)SC(=S)N1Cc1ccccc1`, the EC50 was 2.77 µM (active) in [4], 6.24 µM (active) in [5] and 1.95 µM (active) in experiment [6].
As for `CC(C)(C)c1cc[n+](C2=C([N-]S(=O)(=O)c3cccs3)C(=O)c3ccccc3C2=O)cc1`, the EC50 in experiment [4] is 2.73 µM (active); in experiment [5] it was 7.2 µM (active); in [6] it was 0.95 µM (active). In addition, the values for the IC50 in experiment [1], in experiment [2] and in experiment [3] were 23.8 µM (active), 8.77 µM (active) and 9.58 µM (active), respectively.
Broadly, the Ki is a measure of affinity in units of concentration, obtained from inhibition or displacement. Turning to `COc1c(-c2nc3ccccc3[nH]2)c(O)cc2oc(C)cc(=O)c12`, the Ki in experiment [7] is 0.794 µM (active); in experiment [8], 0.631 µM (active); in experiment [9] it was 0.794 µM (active); in experiment [10], 5.01 µM (active); in [11] it was 0.158 µM (active).
As to `COC(=O)c1c(N)nc2ccccn12`, the Ki was 39.8 µM (active) in [7]; 79.4 µM (active) in [8]; 15.8 µM (active) in experiment [9]; 12.6 µM (active) in experiment [10]; 10 µM (active) in experiment [11].
Take `CCc1ccc(S(=O)(=O)/N=C2\C=C(Nc3ccc(O)cc3)C(=O)c3ccccc32)cc1`: the EC50 in experiment [4] was 1.86 µM (active); in experiment [5], 2.16 µM (active); in [6] it was 0.306 µM (active).
`Cc1cc([N+](=O)[O-])cc(/C=N\NC(=O)C2COc3ccccc3O2)c1O` (stereo not given): the EC50 in [4] was 2.74 µM (active); in experiment [5], 2.79 µM (active). Also, the results for the IC50 in experiment [1], in [2] and in experiment [3] were 17.6 µM (active), 14.5 µM (active) and 42.1 µM (active), respectively.
On to `Cc1ccc(F)c(NC(=O)Nc2ccc(-c3cccc4[nH]nc(N)c34)cc2)c1` [LINIFANIB], for which the Ki in experiment [7] was > 3.16 µM (inactive); in [8], 0.0501 µM (active); in [9], 0.0794 µM (active); in experiment [10] it was > 5.01 µM (inactive); in experiment [11], 1 µM (active).
